Data published in PubChem BioAssay AID2305 (GlaxoSmithKline (GSK), 2010).

Tested on: P. falciparum 3D7 growth, pLDH absorbance
Assay: blood-stage malaria parasite growth potency – strain 3D7, dose response (AID 2305)

## c1ccc(Oc2ccc(Nc3ccnc4cc(-c5cccc(CNCCN6CCOCC6)c5)ccc34)cc2)cc1
  IC50: 390 nM

## Clc1ccc(-c2cc(-c3csc(Nc4ccncc4)n3)on2)cc1
  IC50: 130 nM

## CC(=O)Nc1nc(C(=O)Nc2ccc(-c3cccc(-c4nc5ccc(C(F)(F)F)cc5[nH]4)c3)cc2)cs1
  IC50: 180 nM

## FC(F)(F)c1ccc(CSc2ccc3nnc(-c4ccccn4)n3n2)cc1
  IC50: 820 nM

## Cc1cccc(CNc2nc(C)cc(N[C@@H](Cc3ccccc3)C(=O)NCCc3ccccc3)n2)c1
  IC50: 670 nM

## OC(CNCCCc1ccccc1)c1cc(OCc2ccccc2)cc(OCc2ccccc2)c1 (centres undefined)
  IC50: 850 nM

## Clc1ccc2c(NCCNc3ccnc4cc(Cl)ccc34)ccnc2c1
  IC50: 400 nM

## COc1cc(CS(C)(=O)=O)ccc1Nc1nccc(-c2c(-c3cccc(NC(=O)c4c(F)cccc4F)c3)nn3ccccc23)n1
  IC50: 970 nM

## CCCOc1cc2c(cc1OCCC)C(C=Cc1ccc(Cl)cc1Cl)=NC(C)C2 (centres undefined)
  IC50: 370 nM

## CCC1CN2CCc3cc(OC)c(OC)cc3C2CC1CC1NCCc2c1[nH]c1ccc(O)cc21 (centres undefined)
  IC50: 100 nM

## CN(c1ccc2c(c1)nc(Nc1cc(C(C)(C)C)on1)n2C)c1ccnc(Nc2ccc(CS(C)(=O)=O)cc2)n1
  IC50: 900 nM

## CCn1c(-c2nonc2N)nc2c(-c3ccccc3)ncc(OCCCCNCCc3ncc[nH]3)c21
  IC50: 850 nM

## CCN(CC)CCN(Cc1ccc(-c2ccc(C(F)(F)F)cc2)cc1)C(=O)Cn1c(CCc2cccc(F)c2F)cc(=O)c2c1CCCC2
  IC50: 870 nM

## Oc1cccc(Nc2ccnc3cc(-c4cc5ccccc5o4)ccc23)c1
  IC50: 760 nM

## N#Cc1cncc(-c2nc3c(N4CCN(c5cnccn5)CC4)cccc3n2CCNCc2ccccc2)c1
  IC50: 910 nM

## CCCN(CCC)CCOC(=O)C(OCC)(c1ccccc1)c1ccccc1
  IC50: 870 nM

## COc1ccc(C(=O)N2CCC(C(=O)NC(C)c3ccc(-n4ccnc4)cc3)CC2)c2ccccc12 (centres undefined)
  IC50: 1130 nM

## Cc1cc(=O)oc2c1ccc1oc(C(O)c3ccc(Cl)cc3)c(C)c12 (centres undefined)
  IC50: 130 nM

## CC(C)(C)CC(C)(C)c1ccc(O)c(CNC2CCCCC2)c1
  IC50: 60 nM

## Cn1nc(-c2ccc(NC(=O)Nc3ccc4ccccc4c3)c(F)c2)c2cnc(NCCN3CCOCC3)nc21
  IC50: 1020 nM

## CS(=O)(=O)CCNCc1cccc(-c2ccc3c(Nc4ccc(Oc5ccccc5)cc4)ccnc3c2)c1
  IC50: 690 nM

## CCCCCCCc1cc(=O)c2ccccc2[nH]1
  IC50: 320 nM

## Cc1ccc(C(=O)Nc2cccc([N+](=O)[O-])c2)cc1S(=O)(=O)N1CC(C)CC(C)C1 (centres undefined)
  IC50: 790 nM

## CCOCn1c(-c2ccccc2)cc2c3c(N)nc(N)nc3ccc21
  IC50: 190 nM

## COC(=O)c1cccc(CNCc2ccc(-c3ccc(-c4nc5c(C)cccc5[nH]4)cc3)cc2)c1
  IC50: 280 nM

## CCCCCCNC(=O)C1Cc2c([nH]c3ccccc23)C2(CCN(CCc3ccccc3)CC2)N1 (centres undefined)
  IC50: 1140 nM

## O=C(NC1CCCCN(Cc2ccccc2O)C1)c1cccc(C(F)(F)F)c1 (centres undefined)
  IC50: 790 nM

## O=C(NC1CCCCN(Cc2ccccc2O)C1)c1ccc(Cl)c(Cl)c1 (centres undefined)
  IC50: 750 nM

## CCOC(=O)[C@H](Cc1cc([N+](=O)[O-])c(Oc2ccc(OC)c(Cc3ccc(OC)c(C(C)C)c3)c2)c([N+](=O)[O-])c1)NC(=O)C(F)(F)F
  IC50: 980 nM

## Cc1cccc(Cn2nc(-c3ccccc3)c(N3CCCCC3)cc2=O)c1
  IC50: 460 nM

## Cc1[nH]c2ccc(-c3ccc(N(C)C)cc3)cc2c(=O)c1Cl
  IC50: 720 nM

## CC(=O)Nc1ccc(OCCN(CC(C)C)c2ccc(C(F)(F)F)c(C#N)c2)c(Cl)c1
  IC50: 310 nM

## CC(C)N1CCN(C(CN2CCN(CCCOc3ccc(-c4ccccc4)cc3)CC2)c2ccc(F)cc2)CC1 (centres undefined)
  IC50: 680 nM

## COc1ccc2nccc([C@@H](O)CN3CCC(NCc4ccc5c(c4)NC(=O)CS5)CC3)c2c1
  IC50: 570 nM

## COc1ccc(-c2ccc(NC(=O)c3cccs3)cc2)cc1CN1CCCN(C)CC1
  IC50: 960 nM

## COc1ccc(C=NNc2nc3ccccc3[nH]2)cc1O
  IC50: 920 nM

## CCOC(=O)c1ccc(NC(=O)Nc2ccc(-c3cccc(-c4nc5c(C)cccc5[nH]4)c3)cc2)cc1
  IC50: 140 nM

## O=C(NCc1cccc(C(F)(F)F)c1)c1ccc(-c2nc3cc(F)c(F)cc3[nH]2)cc1
  IC50: 780 nM

## Nc1nc(N)c2c(Sc3ccccc3)cccc2n1
  IC50: 650 nM

## CCc1cn2c3c(cc(C(=O)N[C@@H](Cc4ccccc4)[C@H](O)CNC4CCOCC4)cc13)N(C(C)C)S(=O)(=O)CC2
  IC50: 80 nM

## CC(=O)Nc1ncc(C(=O)Nc2cccc(-c3cccc(-c4nc5ccc(F)cc5[nH]4)c3)c2)s1
  IC50: 450 nM

## Cc1ccc(C(=O)NC2C(=O)NC2c2ccccc2)c(C)c1 (centres undefined)
  IC50: 950 nM

## Cc1ccccc1C1CCN(C2CCC(NC(=O)c3cc4cc(C(C)C)ccc4[nH]3)CC2)CC1 (centres undefined)
  IC50: 690 nM

## COC(=O)c1cccc(CNCc2cccc(-c3ccc(-c4nc5c(C)cccc5[nH]4)s3)c2)c1
  IC50: 210 nM

## COc1ccc(NC(=O)N2CCCN(CCCCCNC(=O)/C=C/c3ccc(C(F)(F)F)cc3)CC2)cc1Cl
  IC50: 980 nM

## Cc1nc(-c2ccc(-c3ccc(NC(=O)Nc4ccc(I)c(OCCN(C)C)c4)cc3)c(C)c2)no1
  IC50: 370 nM

## COc1cccc(CCNCCCCCCNCCc2ccc(Cl)cc2)c1
  IC50: 1010 nM

## Cc1cccc2[nH]c(-c3cccc(-c4cccc(NC(=O)N[C@@H]5C[C@H]5c5ccccc5)c4)c3)nc12
  IC50: 710 nM

## Cc1c(Cc2ccccc2)c(=O)oc2c(C)c3c(cc12)CN(CC(C)c1ccccc1)CO3 (centres undefined)
  IC50: 450 nM
